For assay [1], the target named is T1, Replicative DNA helicase DnaB (Mycobacterium tuberculosis, UniProt P9WMR3).
T1 sequence (P9WMR3 whole entry): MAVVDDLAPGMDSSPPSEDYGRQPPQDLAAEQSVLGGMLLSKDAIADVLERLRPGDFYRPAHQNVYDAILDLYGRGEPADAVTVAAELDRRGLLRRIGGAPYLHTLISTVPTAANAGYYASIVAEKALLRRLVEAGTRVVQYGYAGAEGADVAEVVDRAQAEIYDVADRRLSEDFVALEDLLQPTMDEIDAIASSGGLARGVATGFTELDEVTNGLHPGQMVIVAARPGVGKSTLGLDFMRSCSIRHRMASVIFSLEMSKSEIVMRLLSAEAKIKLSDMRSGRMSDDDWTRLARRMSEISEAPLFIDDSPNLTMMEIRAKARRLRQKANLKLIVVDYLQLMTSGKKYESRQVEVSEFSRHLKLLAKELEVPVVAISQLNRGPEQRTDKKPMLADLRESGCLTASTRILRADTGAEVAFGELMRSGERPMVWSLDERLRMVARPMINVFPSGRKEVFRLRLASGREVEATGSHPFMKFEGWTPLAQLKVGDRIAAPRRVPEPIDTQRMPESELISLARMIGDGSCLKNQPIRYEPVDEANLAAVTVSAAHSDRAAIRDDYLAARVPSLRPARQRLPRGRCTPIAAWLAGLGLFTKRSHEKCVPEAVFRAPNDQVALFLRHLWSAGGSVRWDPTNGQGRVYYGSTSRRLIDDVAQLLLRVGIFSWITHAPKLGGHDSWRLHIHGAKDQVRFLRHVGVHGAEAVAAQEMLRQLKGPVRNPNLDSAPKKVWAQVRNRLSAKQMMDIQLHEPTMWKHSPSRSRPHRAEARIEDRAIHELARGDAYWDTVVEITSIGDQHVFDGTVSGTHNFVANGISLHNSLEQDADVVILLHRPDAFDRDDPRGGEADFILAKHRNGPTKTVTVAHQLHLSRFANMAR
In words: DnaB intein splicing inhibitors, dose response, biochemical, cell-free fluorescence (AID 449749). It is filed as functional.

The nature of assay [2]: general cell-killing toxicity readout – plate reader, dry powder samples, cytotoxicity control for PAX8 inhibitor project, dose response (AID 743021). In kind it is functional, cell-based.
Assay [3] addresses T2, Sentrin-specific protease 8 (Homo sapiens, UniProt Q96LD8).
T2 sequence (Q96LD8 whole entry): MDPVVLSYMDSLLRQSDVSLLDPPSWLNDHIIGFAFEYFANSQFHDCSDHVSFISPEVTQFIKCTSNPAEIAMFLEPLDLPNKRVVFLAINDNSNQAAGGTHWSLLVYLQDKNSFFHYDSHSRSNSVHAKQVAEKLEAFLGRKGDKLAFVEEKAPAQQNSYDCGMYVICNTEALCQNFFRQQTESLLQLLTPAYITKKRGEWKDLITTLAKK
In words: inhibition of sentrin protease 8 – biochemical, luminescence, set 2, SAR follow-up (AID 588601). It is filed as functional.

The target of assay [4] is T3, Sentrin-specific protease 6 (Homo sapiens, UniProt Q9GZR1).
T3 sequence (Q9GZR1 whole entry): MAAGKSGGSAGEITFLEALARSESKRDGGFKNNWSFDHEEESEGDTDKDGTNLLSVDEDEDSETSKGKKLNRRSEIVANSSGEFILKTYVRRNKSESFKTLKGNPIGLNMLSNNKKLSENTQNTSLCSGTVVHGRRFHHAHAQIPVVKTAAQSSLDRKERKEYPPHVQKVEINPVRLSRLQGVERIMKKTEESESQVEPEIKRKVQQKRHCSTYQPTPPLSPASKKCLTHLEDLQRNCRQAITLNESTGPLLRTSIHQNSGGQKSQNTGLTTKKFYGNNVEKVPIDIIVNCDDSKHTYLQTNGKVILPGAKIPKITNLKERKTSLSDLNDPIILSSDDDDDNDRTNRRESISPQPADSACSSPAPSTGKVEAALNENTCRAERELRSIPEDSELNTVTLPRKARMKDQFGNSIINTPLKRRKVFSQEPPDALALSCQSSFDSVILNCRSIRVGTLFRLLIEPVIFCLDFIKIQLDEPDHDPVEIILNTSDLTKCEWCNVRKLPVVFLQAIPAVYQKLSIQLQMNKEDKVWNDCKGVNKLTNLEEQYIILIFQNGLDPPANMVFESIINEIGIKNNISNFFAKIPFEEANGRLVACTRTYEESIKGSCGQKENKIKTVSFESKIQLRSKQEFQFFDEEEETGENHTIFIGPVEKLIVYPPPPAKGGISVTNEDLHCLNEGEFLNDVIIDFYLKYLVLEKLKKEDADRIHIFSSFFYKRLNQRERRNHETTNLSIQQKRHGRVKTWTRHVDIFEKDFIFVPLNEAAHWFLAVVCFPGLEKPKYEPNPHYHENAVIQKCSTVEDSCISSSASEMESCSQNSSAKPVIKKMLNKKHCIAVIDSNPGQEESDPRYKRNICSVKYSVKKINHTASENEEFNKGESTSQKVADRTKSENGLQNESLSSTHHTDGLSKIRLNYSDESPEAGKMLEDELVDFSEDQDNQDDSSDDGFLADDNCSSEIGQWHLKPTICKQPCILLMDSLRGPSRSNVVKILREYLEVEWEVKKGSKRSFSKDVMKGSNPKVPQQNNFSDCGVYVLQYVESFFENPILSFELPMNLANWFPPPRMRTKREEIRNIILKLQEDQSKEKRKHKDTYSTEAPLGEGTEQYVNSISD
In words: inhibition of human SENP6 catalytic domain – biochemical, luminescence, set 2, SAR follow-up (AID 588598). It is filed as functional.

In assay [5] the target is T3, Sentrin-specific protease 6. It is filed as functional.
A short description of assay [6]: disruptors of CAL PDZ reporter peptide binding – biochemical, fluorescence polarization, untagged CAL PDZ, dry powder, dose response (AID 602255). It is filed as functional.
The target in assay [7] is Polyadenylate-binding protein 1 (Homo sapiens, UniProt P11940). Put plainly: MLLE domain peptide-binding blockers, IC50 – biochemical, fluorescence polarization, FITC-PAM2 peptide, dose response (AID 602259). It is filed as functional. The note with it: read-out: IC50_Mean.

Structures are written as SMILES. Activity calls are given as the source filed them. A value given as a limit tells only on which side of the number the result lay.

Sequence of Polyadenylate-binding protein 1 (P11940 whole entry, the tested form may be a part): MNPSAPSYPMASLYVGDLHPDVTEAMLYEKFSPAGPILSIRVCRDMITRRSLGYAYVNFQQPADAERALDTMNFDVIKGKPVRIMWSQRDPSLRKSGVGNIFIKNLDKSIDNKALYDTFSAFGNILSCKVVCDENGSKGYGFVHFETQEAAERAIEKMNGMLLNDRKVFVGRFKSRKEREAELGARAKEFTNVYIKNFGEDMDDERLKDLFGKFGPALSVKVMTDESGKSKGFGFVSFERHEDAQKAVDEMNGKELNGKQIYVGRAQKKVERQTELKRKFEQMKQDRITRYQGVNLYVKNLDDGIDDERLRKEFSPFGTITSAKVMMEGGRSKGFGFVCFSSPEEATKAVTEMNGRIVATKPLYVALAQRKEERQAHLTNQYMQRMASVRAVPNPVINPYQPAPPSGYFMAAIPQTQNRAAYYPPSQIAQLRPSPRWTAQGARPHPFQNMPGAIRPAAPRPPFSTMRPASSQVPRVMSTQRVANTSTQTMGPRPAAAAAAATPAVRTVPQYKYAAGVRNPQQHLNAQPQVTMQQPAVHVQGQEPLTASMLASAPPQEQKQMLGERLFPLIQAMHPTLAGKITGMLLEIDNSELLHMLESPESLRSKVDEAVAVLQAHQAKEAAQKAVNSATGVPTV

`Cc1nn(-c2ccccc2)c(Cl)c1CN(C(=O)CCl)c1ccc(Cl)cc1`: the AC50 in assay [1] is 1.52 µM (active); in assay [2], 6.9 µM (active).
In the case of `Oc1ccccc1/C=C/c1noc(-c2ccccc2O)n1`, the IC50 in assay [3] was 43 µM (active); in assay [4], 62.4 µM (active); in assay [5], > 100 µM (inactive).
As for `Cc1cccc(N=Nc2ccc(N(C)C)cc2)c1`, in assay [5], the IC50 is 4.4 µM (active).
With `O=C(O)CSc1cc(NS(=O)(=O)c2ccc(Cl)cc2)c2ccccc2c1O`, the AC50 in assay [6] is 56.1 µM (active); in assay [1] it was 2.91 µM (active). The IC50 in assay [7] was > 66 µM (inactive).
As for `COc1ccccc1N1C(=O)Cc2ccccc2C1=O`, the AC50 in assay [1] is > 380 µM (inactive). For the same molecule, the IC50 in assay [5] was 10.6 µM (active).
